We go through 15 compounds from US4459304A, “Combating pests with 2-anilino-3,5-dinitro-benzotrifluorides” (Bayer Aktiengesellschaft, priority 1977, dated 1984).

Common to all, as to assay type: in vivo
Assay [1] relates to Ceratitis capitata (eggs). The assay is described as follows: Development-inhibiting action, Ceratitis capitata (eggs). As to conditions: concentration 10 ppm in synthetic feed, eggs until flies slipped. The source says:
(§1) Examples 8 and 9, which are given below, show the arthropod development-inhibiting action of the compounds according to the invention without implying a limitation in respect of the breadth of action of these compounds. In the experiments, the morphological changes, such as half-pupated insects, incompletely slipped larvae or caterpillars, defective wings, pupal cuticula in the case of imagos and the like are rated as malformations over the entire stated development of the test insects. The sum of the morphological malformations, together with the insects killed during the sloughing or the metamorphosis, is given in percent of the test insects.
Test insect: Ceratitis capitata (eggs), 20 specimens
Feed: Synthetic feed (carrot powder with yeast powder)
Solvent: 20 parts by weight of acetone
Emulsifier: 5 parts by weight of alkylaryl polyglycol ether
To produce a suitable preparation of active compound, 4 parts by weight of active compound were mixed with the stated amount of solvent, emulsifier and sufficient water to produce a 1% strength mixture which was diluted with water to the desired concentration.
The eggs of the test insects were placed on a dish with synthetic feed, into which the selected concentration of the active compound mixture was incorporated so that the stated amount of active compound in ppm (parts per million) was obtained. The development was observed until the flies slipped.
As a control, synthetic feed mixed only with solvent and emulsifier of the stated concentration was presented.

In assay [2] the test system is two-spotted spider mite (Tetranychus urticae). The assay is described as follows: Tetranychus test (resistant), degree of destruction of spider mites on bean plants. Conditions: 48 h, after 2 days; for mortality at 0.0001 %: active compound concentration 0.0001%; for mortality at 0.001 %: active compound concentration 0.001%. The procedure: (§2) Solvent: 3 parts by weight of dimethylformamide
(§3) Emulsifier: 1 part by weight of alkylaryl polyglycol ether
To produce a suitable preparation of active compound, 1 part by weight of the active compound was mixed with the stated amount of solvent and the stated amount of emulsifier and the concentrate was diluted with water to the desired concentration.
Bean plants (Phaseolus vulgaris) which were heavily infested with the two-spotted spider mite (Tetranychus urticae) in all stages of development were sprayed with the preparation of the active compound until dripping wet.
After the specified periods of time, the degree of destruction was determined as a percentage: 100% meant that all of the spider mites were killed whereas 0% meant that none of the spider mites were killed.

The next assay relates to Laphygma exempta (eggs). The assay is described as follows: Development-inhibiting action, Laphygma exempta (eggs). As to conditions: concentration 10 ppm, up to larvae of third stage.
Text: as §1
Test insect: Laphygma exempta (eggs)
Solvent: 10 parts by weight of acetone
as §3
To produce a suitable preparation of active compound, 2 parts by weight of active compound were mixed with the stated amount of solvent, emulsifier and sufficient water to produce a 1% strength mixture, which was diluted with water to the desired concentration.
Deposited eggs, at the rate of 30 eggs on a filter-paper, were moistened with 1 ml of active compound solution of the stated concentration in ppm (parts per million) and were observed, in plastic boxes, until the young larvae slipped. The young larvae were fed with corn leaves which had been sprayed with the stated concentration of active compound solution on the same day as the eggs.
The development of the test insects was observed up to the larvae of the third stage.
As a control, deposited eggs were treated in the same manner with solvent and emulsifier of the corresponding concentration, and feeding was carried out with corn leaves.

Assay [3] concerns mustard beetle larvae (Phaedon cochleariae). The assay is described as follows: Phaedon larvae test, degree of destruction on cabbage leaves. Conditions: 72 h, after 3 days; for mortality at 0.001 %: active compound concentration 0.001%; for mortality at 0.01 %: active compound concentration 0.01%. As to the method: as §2
Emulsifier: 1 part by weight of alkylarly polyglycol ether
To produce a suitable preparation of active compound, 1 part by weight of the active compound was mixed with the stated amount of solvent containing the stated amount of emulsifier and the concentrate was diluted with water to the desired concentration.
Cabbage leaves (Brassica oleracea) were sprayed with the preparation of the active compound until dripping wet and were then infested with mustard beetle larvae (Phaedon cochleariae).
After the specified periods of time, the degree of destruction was determined in %: 100% meant that all of the beetle larvae had been killed whereas 0% meant that none of the beetle larvae had been killed.

As usually defined, the inhibition is the percentage by which the read-out fell short of the control. Low values mean a response near the control, high ones a response far below the control. Consider `O=[N+]([O-])c1cc([N+](=O)[O-])c(Nc2c(Cl)cc(S(=O)(=O)C(F)(F)F)cc2Cl)c(C(F)(F)F)c1` [Compound 8], for which, in assay [1], at 10 ppm the inhibition was 100%.

The mortality is the share of the test organisms that died. A lower mortality goes with more survivors. For the compound `O=[N+]([O-])c1cc([N+](=O)[O-])c(Nc2cccc(SC(F)(F)F)c2)c(C(F)(F)F)c1` [Compound 25], in assay [2], the mortality at 0.0001 % is 95% and the mortality at 0.001 % was found to be 100%.

Consider `O=[N+]([O-])c1cc([N+](=O)[O-])c(Nc2ccc(S(=O)(=O)C(F)(F)F)cc2Cl)c(C(F)(F)F)c1` [Compound 7], for which the inhibition at 10 ppm in assay [1] was found to be 100%.

In the case of `O=[N+]([O-])c1cc([N+](=O)[O-])c(Nc2ccc(OC(F)(F)F)c(Cl)c2)c(C(F)(F)F)c1` [Compound 9], the inhibition at 10 ppm (in the assay with Laphygma exempta (eggs); in assay [1]) was 100% throughout. The same compound registered a mortality at 0.0001 % in assay [2] of 100%. In assay [2], this compound yielded a mortality at 0.001 % of 100%.

In assay [3], `O=[N+]([O-])c1cc([N+](=O)[O-])c(Nc2cc(Cl)ccc2Cl)c(C(F)(F)F)c1` [B, reference compound] came in with a mortality at 0.001 % of 0% and a mortality at 0.01 % of 100%.

With `O=[N+]([O-])c1cc([N+](=O)[O-])c(Nc2c(Cl)cccc2Cl)c(C(F)(F)F)c1` [A, reference compound], the inhibition at 10 ppm in the assay with Laphygma exempta (eggs) was 20%. Further, in assay [2], the mortality at 0.0001 % amounted to 0% and the mortality at 0.001 % was determined as 98%.

On to `O=[N+]([O-])c1cc([N+](=O)[O-])c(Nc2ccc(OC(F)(F)F)cc2)c(C(F)(F)F)c1` [Compound 1, 2-(4-trifluoromethoxy-anilino)-3,5-dinitro-benzotrifluoride], for which, in assay [2], the mortality at 0.0001 % is 70% and the mortality at 0.001 % was found to be 100%. The compound further returned an inhibition at 10 ppm in assay [1] of 100%.

For the compound `O=[N+]([O-])c1cc([N+](=O)[O-])c(Nc2ccccc2SC(F)(F)F)c(C(F)(F)F)c1` [Compound 21], in assay [2], the mortality at 0.0001 % is 50% and the mortality at 0.001 % worked out at 100%.

For `O=[N+]([O-])c1cc([N+](=O)[O-])c(Nc2ccc3c(c2)C(F)(F)OC(F)(F)O3)c(C(F)(F)F)c1` [Compound 2], in assay [2], the mortality at 0.0001 % was 100% and the mortality at 0.001 % was 100%.

For `O=[N+]([O-])c1cc([N+](=O)[O-])c(Nc2cc(SC(F)(F)F)ccc2Cl)c(C(F)(F)F)c1` [Compound 22], the mortality at 0.001 % in assay [2] came to 100%.

In assay [2], `CSc1ccc(Nc2c([N+](=O)[O-])cc([N+](=O)[O-])cc2C(F)(F)F)c(C(F)(F)F)c1` [Compound 10] had a mortality at 0.0001 % of 50% and a mortality at 0.001 % of 98%.

On to `O=[N+]([O-])c1cc([N+](=O)[O-])c(Nc2cc(S(=O)(=O)C(F)(F)F)ccc2Cl)c(C(F)(F)F)c1` [Compound 14], for which, in assay [3], the mortality at 0.001 % was determined as 80% and the mortality at 0.01 % turned out to be 100%.

In assay [3], `O=[N+]([O-])c1cc([N+](=O)[O-])c(Nc2ccc(OC(F)(F)F)cc2Cl)c(C(F)(F)F)c1` [Compound 13, 2-(2-chloro-4-trifluoromethoxy-anilino)-3,5-dinitro-benzotrifluoride] gave a mortality at 0.001 % of 85% and a mortality at 0.01 % of 100%. Also, the inhibition at 10 ppm with Laphygma exempta (eggs) came out at 100%. In assay [2], the mortality at 0.0001 % came out at 100% and the mortality at 0.001 % came to 100%. The inhibition at 10 ppm in assay [1] amounted to 100%.

With `O=[N+]([O-])c1cc([N+](=O)[O-])c(Nc2cccc(OC(F)(F)F)c2)c(C(F)(F)F)c1` [Compound 24], in assay [2], the mortality at 0.0001 % turned out to be 95% and the mortality at 0.001 % came to 100%.

Take `O=[N+]([O-])c1cc([N+](=O)[O-])c(Nc2ccc(SC(F)(F)F)cc2)c(C(F)(F)F)c1` [Compound 4]: in assay [3], the mortality at 0.001 % worked out at 50% and the mortality at 0.01 % was 100%. For the same compound, in assay [2], the mortality at 0.0001 % worked out at 99% and the mortality at 0.001 % was 100%.
